Tested on: human keratinocyte
Assay: In vitro cultured human keratinocyte cell proliferation promoting effect (WST-1)
Type: cell-based
Conditions: primary-cultured human keratinocyte, cultured two days; AMP 0-1 w/v % combined with UMP 0.000001-0.1 w/v %; versus comparative sample without uridine monophosphate disodium set as 1; FIG. 1
Method: Primary-cultured human keratinocyte (manufactured by Kurabo Industries, Ltd.) was cultured in a 10-cm petri dish, and the cultured cells were collected in the subconfluent state and then stored in a frozen state. The following experiments were conducted using those cryopreserved cells.
1. The cryopreserved cells were dissolved in HuMediaKG2 liquid culture media (manufactured by Kurabo Industries, Ltd.), the cell concentration was adjusted to […]. 50 μl of thus obtained cells-containing solution was poured into each well of a test plate to adjust the cell concentration to 2500 cells/50 μl/well.
2. […]
3. […] The test samples contained solutions at various concentrations prepared by blending uridine monophosphate disodium to adenosine monophosphate disodium solutions in which the concentration of adenosine monophosphate contained in the 300 μl of the test sample was adjusted to 0, 0.0001, 0.001, 0.01, 0.1, and 1 W/V %, so that the concentration of uridine monophosphate disodium was adjusted to 0, 0.000001 (1E-06), 0.00001 (1E-05), 0.0001, 0.001, 0.01 and 0.1 w/v % as calculated based on the concentration of the uridine monophosphate.
4. Two days after culture initiation, the proliferation of human keratinocyte cells was measured using a WST-1 reagent (manufactured by TaKaRa) based on the rise in absorbance. […]

Row | SMILES | cell proliferation promoting effect of adenosine monophosphate disodium when blended with uridine monophosphate disodium (relative ratio of number of cells, ratio of cont.)
1 | Nc1ncnc2c1ncn2[C@@H]1O[C@H](COP(=O)([O-])[O-])[C@@H](O)[C@H]1O.[Na+].[Na+] [adenosine monophosphate disodium] | potentiated and promoted
2 | O=c1ccn([C@@H]2O[C@H](COP(=O)([O-])[O-])[C@@H](O)[C@H]2O)c(=O)[nH]1.[Na+].[Na+] [uridine monophosphate disodium] | potentiated and promoted

From patent US20050222076A1, “Composition for cell proliferation” (OTSUKA PHARMACEUTICAL CO., LTD., priority 2002, published 2005)
